Among the data in patent US11866431B2, “Bicyclic compounds” (Vivace Therapeutics, Inc., priority 2018, dated 2024) are IC50 values, retold here.

In one test the test system is 8XTBD luciferase reporter (YAP reporter) in HEK293T cells. In words: YAP Reporter Assay. The class given is cell-based. The settings on record: Homo sapiens, HEK-293T, 24 h, read-out: Firefly Luciferase IC50 (μM). The protocol:
HEK293T cells stably transfected with 8XTBD luciferase reporter and pRLTK in 384-well plates were treated with the test compounds, starting from 3 μM (final concentration in assay plate), 1:3 dilution, and 10 points in quadruplicates. Post 24-hr incubation with compounds at 37° C. and 5% CO2, cells were lysed and 8XTBD-driven firefly luciferase and control TK-driven renilla luciferase activities were measured using Promega Dual-Luciferase Reporter Assay System.
Reagents: The reagents used for this study are: DMEM: Invitrogen #11960077, Dual-Glo Luciferase Assay System: Promega-E2980, Puromycin Dihydrochloride: Invitrogen-A1113803, 384-well plate: PerkinElmer-6007480, L-GLUTAMINE: Invitrogen-25030164, Hygromycin B: Invitrogen-10687010, and Penicillin-Streptomycin: Merk-TMS-AB2-C
Media: The media used for this assay were: Culture Medium: DMEM+1 ug/mL puromycin+200 ug/mL hygromycin (with 10% FBS+1 mM L-glutamine); and Assay Medium: DMEM (with 10% FBS+1 mM L-glutamine+1×P/S).
Cell Plating: The appropriate media was warmed at 37° C. by water bath: Culture Medium, Assay Medium, 1*D-PBS, 0.05% trypsin-EDTA. The cells were trypsinized after removing all media, then washed with 1*sterile D-PBS and then with 2 ml 0.05% trypsin-EDTA. The cells were then incubated at RT for one minute. Then 10 ml/75 cm2 flask Assay Medium was added to each flask. Using a 10 ml pipette, the cells were then gently resuspended in the media, until the clumps completely disappeared. The cells were then transferred into 50 ml centrifuge tubes and were centrifuged at 800 rpm for 5 mins. The medium was removed and the cells were resuspended with Assay Medium. An aliquot of cells was used to count the cell density (cells/ml). The cell suspension was then diluted with Assay Medium to a concentration of 6×10^4 cells/ml. 50 ul cells suspension was then plated to 384-well plate (PerkinElmer-6007480), 3×10^3 cells/well and the cells were incubated in an incubator at 37° C. 5% CO2.
Compound Treatment: In the afternoon (incubation of the plate with 3-4 hrs), the test compounds were added by Echo, starting from 3 uM (final concentration in the assay plate), 1:3 dilution, 10 points, quadruplicates. The plate was placed at 37° C. 5% CO2 incubator for 24 hrs.
Detection: The Dual-Glo Luciferase Reagent was prepared by transferring the contents of one bottle of Dual-Glo Luciferase Buffer to one bottle of Dual-Glo Luciferase Substrate to create the Dual-Glo Luciferase Reagent. Mixing was performed by inversion until the substrate was thoroughly dissolved. After mixing, the reagent was aliquoted into 15 ml tubes. In the afternoon (24 hrs post compound treatment), the DMEM+ medium in the 384 well plates were aspirated by Microplate Washer.
Measuring firefly luciferase activity: 20 ul Dual-Glo Luciferase Reagent was added to the 384-well plates. The plates were protected from light to prevent interference with the assay. The plates were shaken for 1 min followed centrifuging plates at 1000 rpm for 30 seconds. After waiting at least 10 minutes, the firefly luminescence was measured by Envision.
Measuring renilla luciferase activity: 20 ul Stop-Glo Reagent was added to the 384-well plates. The plates were shaken for 1 min and then centrifuged at 1000 rpm for 30 seconds. After waiting at least 10 minutes, the renilla luminescence was measured by Envision.
Compound IC50 and maximum inhibition on the firefly luciferase and renilla luciferase activities were reported separately.
(Reporter assays use an easily measured gene product as a stand-in for the process of interest.)
Regarding `O=C(NCC(F)(F)F)c1ccc2c(-c3ccc(C(F)(F)F)cc3)cccc2c1` [Compound 54, N-(2,2,2-trifluoroethyl)-5-(4-(trifluoromethyl)phenyl)-2-naphthamide], the IC50 (as a rule, the point on the concentration scale where inhibition reaches its midpoint) was less than 0.1 µM.

Still in this test, the particulars now being: Homo sapiens, HEK-293T; HEK293T cells stably transfected with 8XTBD luciferase reporter and pRLTK; 24-hr incubation; top concentration 3 μM; read-out: Firefly Luciferase IC50.
Take `C[C@H](NC(=O)c1cnc2c(-c3ccc(C(F)(F)F)cc3)cccc2n1)c1ccccn1` [Compound 266, (S)—N-(1-(pyridin-2-yl)ethyl)-5-(4-(trifluoromethyl)phenyl)quinoxaline-2-carboxamide]: the half-inhibitory concentration (IC50) fell in the range of 0.1 to 1 µM.
Take `CC(C)NC(=O)c1ccc2c(-c3ccc(C(F)(F)F)cc3)ccc(S(C)(=O)=O)c2c1` [Compound 28, N-isopropyl-8-methylsulfonyl-5-[4-(trifluoromethyl)phenyl]naphthalene-2-carboxamide]: the IC50 was 1 to 3 µM.
Consider `C#Cc1ccc(-c2ccc(C(F)(F)F)cc2)c2ccc(C(=O)NC(C)C)cc12` [Compound 20, 8-ethynyl-N-isopropyl-5-[4-(trifluoromethyl)phenyl]naphthalene-2-carboxamide], for which the IC50 was less than 0.1 µM.
Still for that read-out and setting: for `O=C(NCCCCO)c1ccc2c(-c3ccc(C(F)(F)F)cc3)cccc2c1` [Compound 255, N-(4-hydroxybutyl)-5-(4-(trifluoromethyl)phenyl)-2-naphthamide] the value was 0.1 to 1 µM; for `C#C[C@H](C)NC(=O)c1ccc2c(-c3ccc(C(F)(F)F)cc3)cccc2c1` [Compound 274, (S)—N-(but-3-yn-2-yl)-5-(4-(trifluoromethyl)phenyl)-2-naphthamide], less than 0.1 µM.
The same measure, in the same setting: for `CC(NC(=O)c1ccc2c(-c3ccc(C(F)(F)F)cc3)cccc2c1)c1cc(Br)ccn1` (centres unmarked) [Compound 225, N-(1-(4-bromopyridin-2-yl)ethyl)-5-(4-(trifluoromethyl)phenyl)-2-naphthamide] the value was less than 0.1 µM; for `C[C@@H](NC(=O)c1ccc2c(-c3ccc(C(F)(F)F)cc3)cccc2c1)c1ccccn1` [Compound 91, (R)—N-(1-(pyridin-2-yl)ethyl)-5-(4-(trifluoromethyl)phenyl)-2-naphthamide], 0.1 to 1 µM.
On the same count and under the same terms, then `CC(C)NC(=O)c1ccc2c(-c3ccc(C(F)(F)F)cc3)cc(Cl)cc2c1` [Compound 36, 7-chloro-N-isopropyl-5-(4-(trifluoromethyl)phenyl)-2-naphthamide], with less than 0.1 µM; and `COc1cc(CNC(=O)c2ccc3c(-c4ccc(C(F)(F)F)cc4)cccc3c2)ccn1` [Compound 210, N-((2-methoxypyridin-4-yl)methyl)-5-(4-(trifluoromethyl)phenyl)-2-naphthamide], with 0.1 to 1 µM.
Turning to `CC#C[C@@H](C)NC(=O)c1ccc2c(-c3ccc(C(F)(F)F)cc3)cccc2c1` [Compound 273, (R)—N-(pent-3-yn-2-yl)-5-(4-(trifluoromethyl)phenyl)-2-naphthamide], the IC50 was less than 0.1 µM.
As for `C[C@@H](NC(=O)c1ccc2c(-c3ccc(C(F)(F)F)cc3)cccc2c1)C1COC1` [Compound 270, (R)—N-(1-(oxetan-3-yl)ethyl)-5-(4-(trifluoromethyl)phenyl)-2-naphthamide], the IC50 was in the range of 0.1 to 1 µM.
With `C[C@H](CCN)NC(=O)c1ccc2c(-c3ccc(C(F)(F)F)cc3)cccc2c1` [Compound 169, (R)—N-(4-aminobutan-2-yl)-5-(4-(trifluoromethyl)phenyl)-2-naphthamide], the IC50 was 0.1 to 1 µM.
As to `COc1cc(-c2ccc(C(F)(F)F)cc2)c2ccc(C(=O)O)cc2c1` [Compound 322, 7-methoxy-5-(4-(trifluoromethyl)phenyl)-2-naphthoic Acid], the IC50 is less than 0.1 µM.
With `CC(C)NC(=O)c1ccc2c(-c3ccc(C(F)(F)F)cc3)ccc([S+](C)[O-])c2c1` (centres unmarked) [Compound 27, N-isopropyl-8-methylsulfinyl-5-[4-(trifluoromethyl)phenyl]naphthalene-2-carboxamide], the IC50 fell in the range of 0.1 to 1 µM.
Take `COC(=O)/C=C/CCNC(=O)c1ccc2c(-c3ccc(C(F)(F)F)cc3)cccc2c1` [Compound 230, methyl (E)-5-[[5-[4-(trifluoromethyl)phenyl]naphthalene-2-carbonyl]amino]pent-2-enoate]: the IC50 was in the range of 0.1 to 1 µM.
Still for that read-out and setting: for `O=C(O)c1cnc2c(-c3ccc(C(F)(F)F)cc3)cc(OC(F)(F)F)cc2c1` [Compound 324, 6-(Trifluoromethoxy)-8-[4-(trifluoromethyl)phenyl]quinoline-3-carboxylic acid] the value was less than 0.1 µM; for `C[C@@H](NC(=O)c1cnc2c(-c3ccc(C(F)(F)F)cc3)cccc2c1)c1ccccn1` [Compound 101, (R)—N-(1-(pyridin-2-yl)ethyl)-8-(4-(trifluoromethyl)phenyl)quinoline-3-carboxamide], 0.1 to 1 µM.
With `O=C(NCc1cccc(COc2c(F)cccc2F)n1)c1ccc2c(-c3ccc(C(F)(F)F)cc3)cccc2c1` [Compound 187, N-((6-((2,6-difluorophenoxy)methyl)pyridin-2-yl)methyl)-5-(4-(trifluoromethyl)phenyl)-2-naphthamide], the half-inhibitory concentration (IC50) was 0.1 to 1 µM.
On the same count and under the same terms, then `CCN1CC([C@@H](C)NC(=O)c2ccc3c(-c4ccc(C(F)(F)F)cc4)cccc3c2)C1` [Compound 148, N-[(1R)-1-(1-Ethylazetidin-3-yl)ethyl]-5-[4-(trifluoromethyl)phenyl]naphthalene-2-carboxamide], with 0.1 to 1 µM; and `C[C@@H](NC(=O)c1ccc2c(-c3ccc(C(F)(F)F)cc3)cccc2c1)c1cccc2ccc(=O)[nH]c12` [Compound 177, N-[(1R)-1-(2-oxo-1H-quinolin-8-yl)ethyl]-5-[4-(trifluoromethyl)phenyl]naphthalene-2-carboxamide], with less than 0.1 µM.
On the same count and under the same terms, for `COc1cc(-c2ccc(C(F)(F)F)cc2)c2ccc(C(=O)NC(CO)c3ccccn3)cc2c1` (centres unmarked) [Compound 291, N-(2-Hydroxy-1-(pyridin-2-yl)ethyl)-7-methoxy-5-(4-(trifluoromethyl)phenyl)-2-naphthamide] the value was less than 0.1 µM.
The same measure, in the same setting: for `O=C(O)c1cnc2c(-c3ccc(C(F)(F)F)cc3)cccc2n1` [Compound 334, 5-(4-(trifluoromethyl)phenyl)quinoxaline-2-carboxylic Acid] the value was 0.1 to 1 µM; for `CC(C)NC(=O)c1ccc2c(-c3ccc(C(F)(F)F)cc3)cc(N(C)S(C)(=O)=O)cc2c1` [Compound 53, N-isopropyl-7-(N-methylmethylsulfonamido)-5-(4-(trifluoromethyl)phenyl)-2-naphthamide], 0.1 to 1 µM; for `C[C@@H](CCN)NC(=O)c1ccc2c(-c3ccc(C(F)(F)F)cc3)cccc2c1` [Compound 168, (S)—N-(4-aminobutan-2-yl)-5-(4-(trifluoromethyl)phenyl)-2-naphthamide], less than 0.1 µM.
Turning to `CC(C)(C)OC(=O)Nc1cccc(CNC(=O)c2ccc3c(-c4ccc(C(F)(F)F)cc4)cccc3c2)c1` [Compound 236, Tert-Butyl (3-((5-(4-(trifluoromethyl)phenyl)-2-naphthamido)methyl)phenyl)carbamate], the IC50 lay in the range of 0.1 to 1 µM.
Still for that read-out and setting: for `C[C@H](CO)NC(=O)c1cnc2c(-c3ccc(C(F)(F)F)cc3)cccc2c1` [Compound 99, (R)—N-(1-hydroxypropan-2-yl)-8-(4-(trifluoromethyl)phenyl)quinoline-3-carboxamide] the value was less than 0.1 µM; for `O=C(NCCC=CCO)c1ccc2c(-c3ccc(C(F)(F)F)cc3)cccc2c1` (stereo in doubt) [Compound 245, N-[(E)-5-hydroxypent-3-enyl]-5-[4-(trifluoromethyl)phenyl]naphthalene-2-carboxamide], 0.1 to 1 µM; for `NC(=O)/C=C/CCNC(=O)c1ccc2c(-c3ccc(C(F)(F)F)cc3)cccc2c1` [Compound 222, N-[(E)-5-amino-5-oxo-pent-3-enyl]-5-[4-(trifluoromethyl)phenyl]naphthalene-2-carboxamide], less than 0.1 µM.
